Experimental data published in ChEMBL document CHEMBL1127416, “GC sequence specific recognition by an N-formamido, C-terminus-modified and imidazole-containing analogue of netropsin” (J Med Chem, 1994).

Columns and labels:
Assay type in all cases: nucleic-acid assay
Nucleic Acid [1] = experiment: The binding constants against calf thymus DNA; conditions: Bos taurus
Nucleic Acid [2] = experiment: The binding constants against T4 coliphage DNA
Nucleic Acid [3] = experiment: The binding constants against poly(dA-dT) DNA
Nucleic Acid [4] = experiment: The binding constants against […] DNA

| Compound | Ka (Nucleic Acid [1]) [M⁻¹] | Ka (Nucleic Acid [2]) [M⁻¹] | Ka (Nucleic Acid [3]) [M⁻¹] | Ka (Nucleic Acid [4]) [M⁻¹] |
| --- | --- | --- | --- | --- |
| Cn1cc(NC(=O)c2cc(NC(=O)CNC(=N)N)cn2C)cc1C(=O)NCCC(=N)N | 1.87e+06 |  |  |  |
| CN(C)CCn1cc(NC(=O)c2nc(NC=O)cn2C)nc1C(N)=O | 137000 | 19000 | 65000 | 105000 |
